# Reference: patent US10562891B2, “Quinazolinones as PARP14 inhibitors” (Ribon Therapeutics Inc., priority 2017, dated 2020)
# Where a name gives a salt, the structure may show the parent alone.
# Biological target: catalytic domain of human PARP14 (Homo sapiens (Human), UniProt Q460N5)
# Assay: Enzymatic assay for inhibition of PARP14 (DELFIA, auto-modification with biotin-NAD)
# Type: biochemical
# Details: auto-modification of PARP14 by biotin-NAD, 50 nM PARP14, 3 μM biotin-NAD
# Summary of the method: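 DELFIA auto-modification read-out: europium-streptavidin bound to biotin-NAD incorporated onto nickel-captured His-TEV PARP14 catalytic domain. Compound preincubated 30 min, then 50 nM enzyme with 3 μM biotin-NAD reacted 3 h, all at 25 °C, pH 8, then NAD quench. Percent inhibition normalized to rucaparib/DMSO wells, fitted (4- or 3-parameter) for IC50.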
# Chain of catalytic domain of human PARP14 (Q460N5 1611-1801): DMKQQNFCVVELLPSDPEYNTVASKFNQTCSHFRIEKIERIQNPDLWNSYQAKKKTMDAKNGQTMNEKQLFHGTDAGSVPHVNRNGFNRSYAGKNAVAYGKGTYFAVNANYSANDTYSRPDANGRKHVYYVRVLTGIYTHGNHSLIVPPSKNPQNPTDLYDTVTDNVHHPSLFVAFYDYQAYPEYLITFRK
row,SMILES,IC50 [nM]
1,"Cc1ccc(F)c2c(=O)[nH]c(CS[C@H]3CC[C@H](O)CC3)nc12 [Example 57, 5-Fluoro-2-(((trans-4-hydroxycyclohexyl)thio)methyl)-8-methylquinazolin-4(3H)-one]",< 1000
2,"Cc1cccc2c(=O)[nH]c(CSC3CCC(N(C)C)CC3)nc12 (stereo not shown) [Example 21, 2-(((4-(Dimethylamino)cyclohexyl)thio)methyl)-8-methylquinazolin-4(3H)-one]",< 1000
3,"O=c1[nH]c(CSC2CCOCC2)nc2cc(Nc3cnccn3)ccc12 [Example 85, 7-(Pyrazin-2-ylamino)-2-(((tetrahydro-2H-pyran-4-yl)thio)methyl)quinazolin-4(3H)-one]",1000 to 10000
4,"Cc1cccc2c(=O)[nH]c(CSC3CCN(C(=O)CN)CC3)nc12 [Example 166, 2-(((1-Glycylpiperidin-4-yl)thio)methyl)-8-methylquinazolin-4(3H)-one Hydrochloride]",< 1000
5,"CN(c1ccc2c(=O)[nH]c(CSC3CCOCC3)nc2c1)C1CCCCC1 [Example 125, 7-(Cyclohexyl(methyl)amino)-2-(((tetrahydro-2H-pyran-4-yl)thio)methyl)quinazolin-4(3H)-one]",1000 to 10000
6,"Cc1ccncc1Nc1ccc2c(=O)[nH]c(CSC3CCOCC3)nc2c1 [Example 91, 7-((4-Methylpyridin-3-yl)amino)-2-(((tetrahydro-2H-pyran-4-yl)thio)methyl)quinazolin-4(3H)-one]",1000 to 10000
7,"CNC(=O)CN1CCC(SCc2nc3cc(NC4CCCC4)cc(F)c3c(=O)[nH]2)CC1 [Example 283, 2-(4-(((7-(Cyclopentylamino)-5-fluoro-4-oxo-3,4-dihydroquinazolin-2-yl)methyl)thio)piperidin-1-yl)-N-methylacetamide hydrochloride]",< 1000
8,"Cc1ccnc2c(=O)[nH]c(CSC3CCOCC3)nc12 [Example 41, 8-Methyl-2-(((tetrahydro-2H-pyran-4-yl)thio)methyl)pyrido[3,2-d]pyrimidin-4(3H)-one]",> 10000
9,"Cc1cccc2c(=O)[nH]c(CSC3COC3)nc12 [Example 39, 8-Methyl-2-((oxetan-3-ylthio)methyl)quinazolin-4(3H)-one]",> 10000
10,"O=c1[nH]c(CSC2CCOCC2)nc2cc(NCc3ccccc3)ccc12 [Example 119, 7-(Benzylamino)-2-(((tetrahydro-2H-pyran-4-yl)thio)methyl)quinazolin-4(3H)-one]",< 1000
11,COc1ccc2nc(CSC3CCOCC3)[nH]c(=O)c2c1 [Example 4],> 10000
12,"Nc1ccc2c(=O)[nH]c(CSC3CCOCC3)nc2c1 [Example 74, 7-Amino-2-(((tetrahydro-2H-pyran-4-yl)thio)methyl)quinazolin-4(3H)-one]",> 10000
13,"O=c1[nH]c(CS[C@H]2CC[C@H](O)CC2)nc2cc(Nc3cccnc3)ccc12 [Example 101, 2-(((trans-4-Hydroxycyclohexyl)thio)methyl)-7-(pyridin-3-ylamino)quinazolin-4(3H)-one]",< 1000
14,"Cc1cccc2c(=O)[nH]c(CS[C@H]3CC[C@H](N)CC3)nc12 [Example 49, 2-(((trans-4-Aminocyclohexyl)thio)methyl)-8-methylquinazolin-4(3H)-one Hydrochloride]",1000 to 10000
15,"Cc1ncccc1Nc1ccc2c(=O)[nH]c(CSC3CCOCC3)nc2c1 [Example 90, 7-((2-Methylpyridin-3-yl)amino)-2-(((tetrahydro-2H-pyran-4-yl)thio)methyl)quinazolin-4(3H)-one]",1000 to 10000
16,"Cc1cccc2c(=O)[nH]c(CSC3CCC(O)CC3)nc12 (stereo not shown) [Example 22, 2-(((4-Hydroxycyclohexyl)thio)methyl)-8-methylquinazolin-4(3H)-one]",< 1000
17,"O=c1[nH]c(CSC2CCOCC2)nc2cc(Nc3ccccc3)ccc12 [Example 79, 7-(Phenylamino)-2-(((tetrahydro-2H-pyran-4-yl)thio)methyl)quinazolin-4(3H)-one]",< 1000

# Now from value to molecule:
row,IC50 [nM],SMILES
1,< 1000,O=c1[nH]c(CS[C@H]2C[C@@H](O)C2)nc2cc(OCC3CCOCC3)cc(F)c12 [Example 405]
2,< 1000,"Cc1cccc2c(=O)[nH]c(CSC3CCN(Cc4ccccc4OCC#N)CC3)nc12 [Example 155, 2-(2-((4-(((8-Methyl-4-oxo-3,4-dihydroquinazolin-2-yl)methyl)thio)piperidin-1-yl)methyl)phenoxy)acetonitrile trifluoroacetate]"
3,< 1000,"O=c1[nH]c(CS[C@H]2CC[C@H](O)CC2)nc2cc(OCC3CCCOC3)cc(F)c12 (stereo partly drawn) [Example 318, 5-Fluoro-2-(((trans-4-hydroxycyclohexyl)thio)methyl)-7-((tetrahydro-2H-pyran-3-yl)methoxy)quinazolin-4(3H)-one]"
4,< 1000,CC(C)(C)COc1cc(F)c2c(=O)[nH]c(CSC3CCOCC3)nc2c1 [Example 416]
5,< 1000,"CC(C)(O)C(=O)N1CCC(SCc2nc3cc(NC4CCCC4)cc(F)c3c(=O)[nH]2)CC1 [Example 279, 7-(Cyclopentylamino)-5-fluoro-2-(((1-(2-hydroxy-2-methylpropanoyl)piperidin-4-yl)thio)methyl)quinazolin-4(3H)-one]"
6,< 1000,CC(=O)N1CCCC(COc2cc(F)c3c(=O)[nH]c(CSC4CCOCC4)nc3c2)C1 (stereo not shown) [Example 401]
7,< 1000,"Cc1cccc2c(=O)[nH]c(CSC3CCN(C(=O)[C@@H](N)CCCNC(=N)N)CC3)nc12 [Example 170, (S)-1-(4-Amino-5-(4-(((8-methyl-4-oxo-3,4-dihydroquinazolin-2-yl)methyl)thio)piperidin-1-yl)-5-oxopentyl)guanidine Trihydrochloride]"
8,1000 to 10000,"Cc1cccc2c(=O)[nH]c(CSC3CCN(C(=O)CCN(C)C)CC3)nc12 [Example 168, 2-(((1-(3-(Dimethylamino)propanoyl)piperidin-4-yl)thio)methyl)-8-methyl quinazolin-4(3H)-one]"
9,< 1000,"O=c1[nH]c(CSC2CCOCC2)nc2cc(NC3CCCCC3)cc(F)c12 [Example 247, 7-(Cyclohexylamino)-5-fluoro-2-(((tetrahydro-2H-pyran-4-yl)thio)methyl)quinazolin-4(3H)-one]"
10,< 1000,"Cc1cccc2c(=O)[nH]c(CSC3CCN(Cc4cnc5ccccn45)CC3)nc12 [Example 152, 2-(((1-(Imidazo[1,2-a]pyridin-3-ylmethyl)piperidin-4-yl)thio)methyl)-8-methylquinazolin-4(3H)-one trifluoroacetate]"
11,< 1000,"O=c1[nH]c(CS[C@H]2CC[C@H](O)CC2)nc2cc(OCC3CCCC3)cc(F)c12 [Example 314, 7-(Cyclopentylmethoxy)-5-fluoro-2-(((trans-4-hydroxycyclohexyl)thio)methyl)quinazolin-4(3H)-one]"
12,< 1000,"CCO[C@H]1C[C@@H](Nc2cc3nc(CSC4CCOCC4)[nH]c(=O)c3c(F)c2F)C1 [Example 331, 7-(((cis)-3-Ethoxycyclobutyl)amino)-5,6-difluoro-2-(((tetrahydro-2H-pyran-4-yl)thio)methyl)quinazolin-4(3H)-one]"
13,< 1000,N#C[C@H]1CC[C@H](Nc2cc3nc(CSC4CCOCC4)[nH]c(=O)c3c(F)c2F)CC1 [Example 360]
14,1000 to 10000,COC(C)(C)CNc1cc2nc(CSC3CCOCC3)[nH]c(=O)c2c(F)c1F [Example 407]
15,< 1000,"C[C@]1(O)CC[C@H](SCc2nc3cc(OCC4CCOCC4)cc(F)c3c(=O)[nH]2)CC1 [Example 332, 5-Fluoro-2-((((cis)-4-hydroxy-4-methylcyclohexyl)thio)methyl)-7-((tetrahydro-2H-pyran-4-yl)methoxy)quinazolin-4(3H)-one]"
16,< 1000,"Cc1cccc2c(=O)[nH]c(CSC3CCN(S(C)(=O)=O)CC3)nc12 [Example 174, 8-Methyl-2-(((1-(methylsulfonyl)piperidin-4-yl)thio)methyl)quinazolin-4(3H)-one]"
17,< 1000,CO[C@H]1CC[C@@H](Nc2cc3nc(CS[C@H]4CC[C@H](O)CC4)[nH]c(=O)c3c(F)c2F)CC1 [Example 379]
18,1000 to 10000,"Cc1cccc2c(=O)[nH]c(CSC3CCN(C(=O)CCc4ccccn4)CC3)nc12 [Example 173, 8-Methyl-2-(((1-(3-(pyridin-2-yl)propanoyl)piperidin-4-yl)thio)methyl) quinazolin-4(3H)-one]"
19,1000 to 10000,"O=c1[nH]c(CSC2CCOCC2)nc2cc(NC3CCOCC3)c(F)cc12 [Example 245, 6-Fluoro-7-((tetrahydro-2H-pyran-4-yl)amino)-2-(((tetrahydro-2H-pyran-4-yl)thio)methyl)quinazolin-4(3H)-one]"
20,< 1000,COCC(=O)N1CCC(COc2cc(F)c3c(=O)[nH]c(CSC4CCOCC4)nc3c2)CC1 [Example 424]
21,< 1000,"O=c1[nH]c(CSC2CCNCC2)nc2cc(NC3CCC3)ccc12 [Example 200, 7-(cyclobutylamino)-2-((piperidin-4-ylthio)methyl)quinazolin-4(3H)-one]"
22,< 1000,CC(C)(COc1cc(F)c2c(=O)[nH]c(CSC3CCOCC3)nc2c1)C(F)(F)F [Example 421]
23,< 1000,"O=c1[nH]c(CSC2CCOCC2)nc2cc(OCC3CCCO3)cc(F)c12 (stereo not shown) [Example 320, 5-Fluoro-2-(((tetrahydro-2H-pyran-4-yl)thio)methyl)-7-((tetrahydrofuran-2-yl)methoxy)quinazolin-4(3H)-one]"
24,> 10000,"CN1CCCC(Nc2ccc3c(=O)[nH]c(CSC4CCOCC4)nc3c2)C1 (stereo not shown) [Example 133, 7-((1-Methylpiperidin-3-yl)amino)-2-(((tetrahydro-2H-pyran-4-yl)thio)methyl)quinazolin-4(3H)-one]"
25,< 1000,CCC(=O)N[C@H]1CC[C@H](SCc2nc3cc(OCC4CC4)cc(F)c3c(=O)[nH]2)CC1 [Example 378]
26,1000 to 10000,"O=c1[nH]c(CSC2CCOCC2)nc2cc(NC3CCCC3)cc(CO)c12 [Example 224, 7-(Cyclopentylamino)-5-(hydroxymethyl)-2-(((tetrahydro-2H-pyran-4-yl)thio)methyl)quinazolin-4(3H)-one]"
